This passage reports LD50 and Drug uptake results from ChEMBL document CHEMBL3045654, “Mechanisms of Low Susceptibility to Imidacloprid in a Laboratory Strain of the Small Brown Planthopper, Laodelphax striatellus FALLEN” (J Pestic Sci, 1997).

The structures appear in SMILES notation.

In data set [1] the test system is Laodelphax striatellus. Nature of the data set: Insecticidal activity againstLaodelphax striatella N (small brown planthopper) treated topically after 24 hr in presence of 40 ng/insect of piperonylbutoxide. The conditions noted are these: topical. It counts as functional.
Data set [2] deals with Laodelphax striatellus. Nature of the data set: Insecticidal activity againstLaodelphax striatella N (small brown planthopper) treated topically after 24 hr in presence of 20 ng/insect of […]. It counts as functional. As to conditions: topical.
Data set [3] relates to Laodelphax striatellus. As to the kind of experiment: Insecticidal activity againstLaodelphax striatella N (small brown planthopper) treated topically after 24 hr. The conditions noted are these: topical. It is filed as functional.
Data set [4] concerns Laodelphax striatellus. As to the kind of experiment: Drug penetration inLaodelphax striatella S (small brown planthopper) at 0.1 ng/insect treated topically after 1 hr. It counts as ADME, organism-based. The conditions noted are these: in vivo, topical_or_ocular.
In data set [5] the test system is Laodelphax striatellus. Nature of the data set: Drug penetration inLaodelphax striatella N (small brown planthopper) at 0.1 ng/insect treated topically after 1 hr. It counts as ADME, organism-based. The conditions noted are these: in vivo, topical_or_ocular.
Data set [6] has as its system Laodelphax striatellus. Nature of the data set: Insecticidal activity againstLaodelphax striatella S (small brown planthopper) treated topically after 24 hr. It is filed as functional. As to conditions: topical.
Data set [7] relates to Laodelphax striatellus. Nature of the data set: Insecticidal activity againstLaodelphax striatella N (small brown planthopper) treated topically after 24 hr in presence of 2 ng/insect of tributylphosportrithioate. It is filed as functional. As to conditions: topical.

For the molecule `O=[N+]([O-])NC1=NCCN1Cc1ccc(Cl)nc1` [IMIDACLOPRID], the LD50 (in general, the dose at which mortality reaches 50%) in the data set on Laodelphax striatellus [1] turned out to be 1.11 mg/kg; with Laodelphax striatellus [2], 1.19 mg/kg; in the data set with Laodelphax striatellus [3] it was 2.17 mg/kg; in the data set on Laodelphax striatellus [6], 0.12 mg/kg; in the data set with Laodelphax striatellus [7], 1.06 mg/kg. Moreover, the Drug uptake in the data set on Laodelphax striatellus [4] and with Laodelphax striatellus [5] was 20% each time.
